Measured values: patent US20090012136A1, “UNIT DOSE FORMULATIONS AND METHODS OF TREATING AND PREVENTING THROMBOSIS WITH THROMBOXANE RECEPTOR ANTAGONISTS” (PORTOLA PHARMACEUTICALS, INC., priority 2007, published 2009)

How the values were obtained:
platelets [1] = experiment: Collagen-induced platelet aggregation by light transmittance aggregometry (LTA) in PRP (Example 1); type: cell-based, human
Description: (§1) Blood from healthy individuals (n=6-7) was obtained by venipuncture and anticoagulated with FXa inhibitor. Platelet rich plasma (PRP) was obtained, and LTA was performed by standard procedures, initiating platelet aggregation with U-46619 (10 μM) or collagen (4 μg/ml).
LTA was performed on PRP samples using collagen (4 micrograms/ml) to induce platelet aggregation.

[2] = hundreds of randomized clinical trials; BMJ 324:71-86 (2002); cited from earlier work
platelets [3] = experiment: U-46619-induced platelet aggregation by light transmittance aggregometry (LTA) in PRP; type: cell-based, human
Description: as §1

platelets [4] = experiment: Real time perfusion chamber assay (RTTP), healthy volunteers and AERD patients (Example 2); type: cell-based, human; conditions: 100 nM or 350 nM spiked in vitro
Description: Real time perfusion chamber assays (RTTP) were performed using blood anticoagulated with Fxa inhibitor (10 uM 034) and perfused through collagen-coated capillaries (1100/sec). Thrombus formation on the collagen surface was monitored in real time using fluorescence microscopy to detect fluorescently labeled (R6G) platelets.
(§2) Assays were performed pre- (+/−ifetroban, spiked in vitro) and post-aspirin desensitization.

platelets [5] = experiment: Collagen-induced platelet aggregation LTA, healthy volunteers and AERD patients (Example 2); type: cell-based, human; conditions: for anti-aggregatory activity in collagen-induced platelet aggregation assay: FIG. 5
Description: (§3) Light transmittance aggregometry (LTA) assays were performed by standard procedures, initiating platelet aggregation with collagen or arachidonic acid.
as §2

platelets [6] = experiment: Real time perfusion chamber assay, blood perfused through collagen-coated capillaries (Example 1); type: cell-based, human; conditions: non-aspirinated blood, ifetroban added in vitro; aspirin 325 mg per day for 2 weeks; FIG. 3
platelets [7] = experiment: Arachidonic acid-induced platelet aggregation LTA (Example 2); type: cell-based, human; conditions: all three tested doses (1 μM, 350 nM, 100 nM); healthy volunteers and AERD patients; FIGS. 7A and 7B
Description: as §3, §2

For `CC(=O)Oc1ccccc1C(=O)O` [aspirin], the “reduction of the extent of collagen-induced platelet aggregation v. baseline (mean+sem)” value (platelets [1]; twenty healthy individuals, aspirin 325 mg/day for two weeks, collagen 4 micrograms/ml, PRP) is listed as 39+/−6.0% and the “reduction in adverse events” value [2] is listed as 20-25%.

In the case of `CCCCCNC(=O)c1coc([C@H]2[C@@H](Cc3ccccc3CCC(=O)[O-])[C@@H]3CC[C@H]2O3)n1.[Na+]` [ifetroban, [1S-(1α,2α,3α,4α)]-2-[[3-[4-[(pentylamino)carbonyl]-2-oxazolyl]-7-oxabicyclo[2.2.1]hept-2-yl]methyl]benzenepropanoic acid], the “concentration in collagen-induced assay relative to that predicted by U-46619-induced assay” value (platelets [1]; 350 nM v. 30 nM) is reported as “approximately 10 times”, the “concentration for maximum inhibition of collagen-induced platelet aggregation” value (platelets [1]; collagen 4 μg/ml, non-aspirinated PRP, ifetroban added in vitro, FIG. 2) is reported as “greater than or equal to 350 nM” and the “amount required to inhibit collagen-induced versus U-46619-induced platelet aggregation” value (platelets [1]; collagen versus U-46619) is reported as “approximately 10 fold”. The “concentration that fully inhibited U-46619-induced platelet aggregation” value (platelets [3]; U-46619 10 μM, PRP anticoagulated with FXa inhibitor, ifetroban added in vitro, FIG. 2) was > 30 nM, the “concentration predicted by U-46619-induced platelet aggregation assays” value (platelets [3]; U-46619-induced platelet aggregation) was 30 nM and the “antithrombotic activity in perfusion chamber assay” value (platelets [4]; AERD patients, FIG. 4B) was “significant antithrombotic activity”. The “antithrombotic activity in perfusion chamber assay” value (platelets [4]; healthy volunteers, FIG. 4A) was “significant antithrombotic activity”, the “anti-aggregatory activity in collagen-induced platelet aggregation assay” value (platelets [5]; AERD patients) was “significant anti-aggregatory activity” and the “concentration reproducing aspirin effects on collagen-induced platelet aggregation and thrombosis” value (platelets [5]; AERD patients, FIG. 5B) was > 100 nM. For the same compound, the “concentration showing statistically significant inhibition of collagen-induced platelet aggregation” value (platelets [5]; AERD patients, FIG. 5B) was > 100 nM, the “inhibition of platelet aggregation compared with aspirin” value (platelets [5]; healthy volunteers, 100 nM ifetroban) was “significantly lower inhibition of platelet aggregation than aspirin” and the “anti-aggregatory activity in collagen-induced platelet aggregation assay” value (platelets [5]; healthy volunteers) was “significant anti-aggregatory activity”. For the same compound, the “concentration showing statistically significant inhibition of collagen-induced platelet aggregation” value (platelets [5]; normal volunteers (P=0.0281), FIG. 5A) was > 100 nM, the “concentration reproducing aspirin effects on collagen-induced platelet aggregation and thrombosis” value (platelets [5]; normal volunteers, FIG. 5A) was > 100 nM and the “concentration providing equivalent or superior inhibitory activity on thrombosis as aspirin” value (platelets [6]) was ≥ 300 nM. For the same compound, the “effect on arachidonic acid-induced platelet aggregation” value (platelets [7]) was “fully blocked”.
